The test system of one experiment is c-myc. Briefly: Inhibition of c-myc expression (mRNA, real-time PCR) in MV4-11 cells. The experiment is classed as cell-based. The conditions noted are these: Human AML MV4-11 cells, 3 h, cMYC mRNA. A digest of the protocol:
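MV4-11 cells treated 3 h at 37° C with increasing compound concentrations or 0.1% DMSO, in triplicate. cMYC mRNA quantified by one-step TaqMan real-time PCR, Ct normalized to internal control (Cyclophilin primers used), fold expression relative to control.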
(Real-time PCR tracks product formation cycle by cycle.)

For experiment [1], the target named is T1, Brd4 bromodomain 1 (BRD4(1)) (Homo sapiens, UniProt O60885).
T1 construct: made in house; host or cells: E. coli BL21(DE3)
Briefly: Inhibition of tetra-acetylated histone H4 binding to Brd4 bromodomain 1 (TR-FRET). The note with it: tetra-acetylated histone H4 peptide, first bromodomain of Brd4. The method in brief: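 His-tagged BRD4(1) from E. coli (200 nM) with biotinylated tetra-acetylated H4 peptide (25-50 nM), Eu-cryptate streptavidin and XL665 anti-His, in HEPES pH 7.4/phosphate/KF buffer, 0.2% DMSO. After 2 h at room temperature, TR-FRET 665/620 nm ratio read; IC50 from dose-response curves.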
Background: TR-FRET usually uses a lanthanide donor and a delayed reading to cut background.

In a further experiment the test system is human AML MV-4-11 cells. Briefly: Inhibition of cell proliferation in MV4-11 cells (CellTiter Aqueous One). The experiment is classed as cell-based. The note with it: MV4-11, 72 h. A digest of the protocol:
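Exponentially growing MV-4-11 cells (5×10^4/well) were treated immediately with two-fold dilutions of compound from 30 μM to 0.2 μM, in triplicate, for 72 h at 37° C, 5% CO2. Viability was measured by MTS absorbance at 490 nm after 3–4 h. Proliferation relative to DMSO after blank correction gave IC50.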

In a further experiment the test system is hIL-6 mRNA. Nature of the experiment: Inhibition of hIL-6 mRNA transcription in LPS-stimulated U937 cells. The experiment is classed as cell-based. The conditions noted are these: Homo sapiens, U-937; PMA-differentiated U937 cells, 1 h pretreatment, 1 ug/mL LPS stimulation, 3 h; read-out: IL-6 activity (Inhibition of hIL-6 mRNA Transcription). The method in brief: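 U937 cells differentiated 3 days with 60 ng/mL PMA, pretreated 1 h with compound (0.1% DMSO), then stimulated with 1 ug/mL E. coli LPS for 3 h at 37 °C. hIL-6 mRNA measured by one-step TaqMan RT-qPCR, normalized to cyclophilin. Fold expression relative to control; triplicate wells.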

pIC50: −log10 of the molar value.

Regarding `Cc1noc(C)c1-c1cc([N+](=O)[O-])c2nc(C)n(CC3CC3)c2c1` [Example Compound 14, 4-(1-(cyclopropylmethyl)-2-methyl-4-nitro-1H-benzo[d]imidazol-6-yl)-3,5-dimethylisoxazole], the pIC50 with c-myc is 5.52 to 6.52; in experiment [1], no less than 6.52; with human AML MV-4-11 cells, 4.52 to 5.52; with hIL-6 mRNA, 5.52 to 6.52.
As to `Cc1noc(C)c1-c1cnc2nc(C)n(Cc3ccc(F)cc3)c2c1` [Example Compound 58, 4-(1-(4-fluorobenzyl)-2-methyl-1H-imidazo[4,5-b]pyridin-6-yl)-3,5-dimethylisoxazole], the pIC50 is 5.52 to 6.52 in the experiment with c-myc, no less than 6.52 in experiment [1], 5.52 to 6.52 in the experiment with human AML MV-4-11 cells and 5.52 to 6.52 in the experiment on hIL-6 mRNA.
As for `Cc1noc(C)c1-c1ccc2ccn(Cc3ccc(F)cc3)c2n1` [Example Compound 49, 4-(1-(4-fluorobenzyl)-1H-pyrrolo[2,3-b]pyridin-6-yl)-3,5-dimethylisoxazole], the pIC50 (in the experiment with c-myc; in experiment [1]; in the experiment with human AML MV-4-11 cells; in the experiment on hIL-6 mRNA) was 4.52 to 5.52 each time.
As to `Cc1noc(C)c1-c1cc(N)c2[nH]c(=O)n(Cc3ccc(O)cc3)c2c1` [compound 129, 4-amino-6-(3,5-dimethylisoxazol-4-yl)-1-(4-hydroxybenzyl)-1H-benzo[d]imidazol-2(3H)-one], the pIC50 is no less than 6.52 in the experiment with c-myc, no less than 6.52 in experiment [1], 5.52 to 6.52 in the experiment on human AML MV-4-11 cells and no less than 6.52 in the experiment on hIL-6 mRNA.
With `COc1ccc(Cn2c(C)nc3ncc(-c4c(C)noc4C)cc32)cc1` [Example Compound 62, 4-(1-(4-methoxybenzyl)-2-methyl-1H-imidazo[4,5-b]pyridin-6-yl)-3,5-dimethylisoxazole], the pIC50 with c-myc was 5.52 to 6.52; in experiment [1], no less than 6.52; in the experiment with human AML MV-4-11 cells it was 5.52 to 6.52; with hIL-6 mRNA it was 5.52 to 6.52.
`Cc1noc(C)c1-c1cnc2cnn(Cc3ccccc3)c2c1` [compound 92, 4-(1-benzyl-1H-pyrazolo[4,3-b]pyridin-6-yl)-3,5-dimethylisoxazole]: the pIC50 with c-myc was 5.52 to 6.52; in experiment [1], no less than 6.52; in the experiment with human AML MV-4-11 cells, 5.52 to 6.52; with hIL-6 mRNA, 5.52 to 6.52.
Regarding `Cc1noc(C)c1-c1cnc2nc(NCc3ccccc3)n(Cc3ccccc3)c2c1` [compound 153, N,1-dibenzyl-6-(3,5-dimethylisoxazol-4-yl)-1H-imidazo[4,5-b]pyridin-2-amine], the pIC50 (in the experiment with c-myc; in experiment [1]; with human AML MV-4-11 cells; with hIL-6 mRNA) was no less than 6.52 in each case.
On to `Cc1noc(C)c1-c1cc(Br)c2nc(C)n(Cc3ccccc3)c2c1` [compound 121, 4-(1-benzyl-4-bromo-2-methyl-1H-benzo[d]imidazol-6-yl)-3,5-dimethylisoxazole], for which the pIC50 in the experiment on c-myc is no less than 6.52; in experiment [1], no less than 6.52; in the experiment with human AML MV-4-11 cells, no less than 6.52; in the experiment on hIL-6 mRNA, 5.52 to 6.52.
Take `CNc1nc2c([N+](=O)[O-])cc(-c3c(C)noc3C)cc2n1Cc1ccccc1` [compound 149, 1-benzyl-6-(3,5-dimethylisoxazol-4-yl)-N-methyl-4-nitro-1H-benzo[d]imidazol-2-amine]: the pIC50 was no less than 6.52 in the experiment on c-myc, no less than 6.52 in experiment [1], 5.52 to 6.52 in the experiment on human AML MV-4-11 cells and no less than 6.52 in the experiment with hIL-6 mRNA.
In the case of `Cc1noc(C)c1-c1cnc2nc(N3CCC3)n(CC3CCCC3)c2c1` [compound 209, 4-(2-(azetidin-1-yl)-1-(cyclopentylmethyl)-1H-imidazo[4,5-b]pyridin-6-yl)-3,5-dimethylisoxazole], the pIC50 was 5.52 to 6.52 in the experiment with c-myc, no less than 6.52 in experiment [1], no less than 6.52 with human AML MV-4-11 cells and no less than 6.52 in the experiment with hIL-6 mRNA.
In the case of `Cc1noc(C)c1-c1cc(N)c2nc(C)n(C(C)c3ccccc3)c2c1` (centres unmarked) [compound 96, 6-(3,5-dimethylisoxazol-4-yl)-2-methyl-1-(1-phenylethyl)-1H-benzo[d]imidazol-4-amine], the pIC50 (with c-myc; in experiment [1]; in the experiment on human AML MV-4-11 cells; in the experiment with hIL-6 mRNA) was no less than 6.52 each time.
On to `Cc1noc(C)c1-c1cnc2c(c1)ncn2Cc1ccc(F)cc1` [Example Compound 44, 4-(3-(4-fluorobenzyl)-3H-imidazo[4,5-b]pyridin-6-yl)-3,5-dimethylisoxazole], for which the pIC50 was 4.52 to 5.52 in the experiment on c-myc, 5.52 to 6.52 in experiment [1], 4.52 to 5.52 with human AML MV-4-11 cells and 5.52 to 6.52 in the experiment on hIL-6 mRNA.
For `CCOc1nc2c(N)cc(-c3c(C)noc3C)cc2n1Cc1ccccc1` [Example Compound 17, 1-benzyl-6-(3,5-dimethylisoxazol-4-yl)-2-ethoxy-1H-benzo[d]imidazol-4-amine], the pIC50 in the experiment with c-myc was no less than 6.52; in experiment [1] it was no less than 6.52; in the experiment on human AML MV-4-11 cells, 5.52 to 6.52; in the experiment on hIL-6 mRNA, 5.52 to 6.52.
As for `Cc1noc(C)c1-c1cc(N)c2nc(C)n(CC3CC3)c2c1` [compound 75, 1-(cyclopropylmethyl)-6-(3,5-dimethylisoxazol-4-yl)-2-methyl-1H-benzo[d]imidazol-4-amine], the pIC50 is 5.52 to 6.52 in the experiment with c-myc, no less than 6.52 in experiment [1], 5.52 to 6.52 in the experiment with human AML MV-4-11 cells and 5.52 to 6.52 in the experiment on hIL-6 mRNA.
Turning to `CC(=O)Nc1cn(Cc2ccccc2)c2cc(-c3c(C)noc3C)cnc12` [compound 99, N-(1-benzyl-6-(3,5-dimethylisoxazol-4-yl)-1H-pyrrolo[3,2-b]pyridin-3-yl)acetamide], the pIC50 in the experiment with c-myc is 5.52 to 6.52; in experiment [1] it was no less than 6.52; in the experiment with human AML MV-4-11 cells it was 5.52 to 6.52; in the experiment on hIL-6 mRNA, 5.52 to 6.52.
Consider `Cc1noc(C)c1-c1cc(N)c2nc(N3CCC3)n(Cc3ccccc3)c2c1` [compound 97, 2-(azetidin-1-yl)-1-benzyl-6-(3,5-dimethylisoxazol-4-yl)-1H-benzo[d]imidazol-4-amine], for which the pIC50 (in the experiment on c-myc; in experiment [1]; in the experiment with human AML MV-4-11 cells; in the experiment with hIL-6 mRNA) was no less than 6.52 each time.
In the case of `Cc1noc(C)c1-c1cnc2ccn(Cc3ccc(F)cc3)c2c1` [Example Compound 48, 4-(1-(4-fluorobenzyl)-1H-pyrrolo[3,2-b]pyridin-6-yl)-3,5-dimethylisoxazole], the pIC50 in the experiment with c-myc was 5.52 to 6.52; in experiment [1], no less than 6.52; in the experiment on human AML MV-4-11 cells it was 4.52 to 5.52; in the experiment on hIL-6 mRNA it was 5.52 to 6.52.
For the compound `Cc1nc2c(N)cc(-c3ccnn3C)cc2n1Cc1ccccc1` [compound 94, 1-benzyl-2-methyl-6-(1-methyl-1H-pyrazol-5-yl)-1H-benzo[d]imidazol-4-amine], the pIC50 was 5.52 to 6.52 with c-myc, no less than 6.52 in experiment [1], 5.52 to 6.52 in the experiment on human AML MV-4-11 cells and 5.52 to 6.52 with hIL-6 mRNA.
Take `Cc1noc(C)c1-c1cnc2nc(N3CCOCC3)n(Cc3ccccc3)c2c1` [compound 114, 4-(1-benzyl-6-(3,5-dimethylisoxazol-4-yl)-1H-imidazo[4,5-b]pyridin-2-yl)morpholine]: the pIC50 in the experiment on c-myc is 5.52 to 6.52; in experiment [1], no less than 6.52; in the experiment on human AML MV-4-11 cells, 5.52 to 6.52; in the experiment with hIL-6 mRNA, 5.52 to 6.52.
In the case of `CNc1nc2c(N)cc(-c3c(C)noc3C)cc2n1Cc1ccccc1` [compound 151, 1-benzyl-6-(3,5-dimethylisoxazol-4-yl)-N2-methyl-1H-benzo[d]imidazole-2,4-diamine], the pIC50 (in the experiment on c-myc; in experiment [1]; in the experiment on human AML MV-4-11 cells; in the experiment on hIL-6 mRNA) was no less than 6.52 in each case.

The values above are taken from patent US10363257B2 (ZENITH EPIGENETICS LTD., priority 2013, dated 2019).
